Experiments:
[1] = molecular target: 5-hydroxytryptamine receptor 2B (Homo sapiens, UniProt P41595); test: Selectivity interaction (Serotonin 5HT2B Calcium flux assay, agonist mode ) EUB0000877a HTR2B
[2] = molecular target: T1, TGF-beta receptor type-1 (Homo sapiens) (UniProt P36897); test: Selectivity interaction (KinomeScan (DiscoverX)) EUB0001049a TGFBR1; conditions: at 1 µM
T1 sequence (whole entry): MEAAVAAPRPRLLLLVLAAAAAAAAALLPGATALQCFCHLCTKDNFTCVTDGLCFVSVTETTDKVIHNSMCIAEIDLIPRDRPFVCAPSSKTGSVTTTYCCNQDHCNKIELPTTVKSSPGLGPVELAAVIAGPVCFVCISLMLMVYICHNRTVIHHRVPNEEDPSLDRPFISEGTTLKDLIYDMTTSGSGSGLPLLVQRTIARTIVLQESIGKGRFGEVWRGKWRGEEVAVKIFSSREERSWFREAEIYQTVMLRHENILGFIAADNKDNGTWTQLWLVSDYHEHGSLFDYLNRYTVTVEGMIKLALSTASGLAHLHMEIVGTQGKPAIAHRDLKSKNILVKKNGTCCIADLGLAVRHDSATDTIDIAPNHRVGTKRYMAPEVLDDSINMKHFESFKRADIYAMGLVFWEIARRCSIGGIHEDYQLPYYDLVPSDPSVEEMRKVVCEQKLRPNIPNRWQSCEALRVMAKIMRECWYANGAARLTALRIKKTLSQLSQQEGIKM

[3] = molecular target: T2, Serine/threonine-protein kinase Sgk1 (Homo sapiens) (UniProt O00141); test: Selectivity interaction (Kinase screening (Nanosyn)) EUB0000604a SGK1
T2 sequence (whole entry): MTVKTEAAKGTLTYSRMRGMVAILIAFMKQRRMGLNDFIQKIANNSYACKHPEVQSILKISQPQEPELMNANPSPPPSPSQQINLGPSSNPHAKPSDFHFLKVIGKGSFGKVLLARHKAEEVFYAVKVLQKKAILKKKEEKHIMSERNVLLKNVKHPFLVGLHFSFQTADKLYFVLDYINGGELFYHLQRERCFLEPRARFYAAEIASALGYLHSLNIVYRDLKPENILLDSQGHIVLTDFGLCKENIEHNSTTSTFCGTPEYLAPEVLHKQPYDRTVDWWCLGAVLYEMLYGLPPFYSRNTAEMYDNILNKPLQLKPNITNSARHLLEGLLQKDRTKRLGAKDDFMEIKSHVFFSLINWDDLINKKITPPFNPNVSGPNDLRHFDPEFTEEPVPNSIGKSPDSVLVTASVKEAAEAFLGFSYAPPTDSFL

[4] = molecular target: T3, Ephrin type-B receptor 3 (Homo sapiens) (UniProt P54753); test: Selectivity interaction (KinomeScan (DiscoverX)) EUB0000092b EPHB3; conditions: at 10 µM
T3 sequence (whole entry): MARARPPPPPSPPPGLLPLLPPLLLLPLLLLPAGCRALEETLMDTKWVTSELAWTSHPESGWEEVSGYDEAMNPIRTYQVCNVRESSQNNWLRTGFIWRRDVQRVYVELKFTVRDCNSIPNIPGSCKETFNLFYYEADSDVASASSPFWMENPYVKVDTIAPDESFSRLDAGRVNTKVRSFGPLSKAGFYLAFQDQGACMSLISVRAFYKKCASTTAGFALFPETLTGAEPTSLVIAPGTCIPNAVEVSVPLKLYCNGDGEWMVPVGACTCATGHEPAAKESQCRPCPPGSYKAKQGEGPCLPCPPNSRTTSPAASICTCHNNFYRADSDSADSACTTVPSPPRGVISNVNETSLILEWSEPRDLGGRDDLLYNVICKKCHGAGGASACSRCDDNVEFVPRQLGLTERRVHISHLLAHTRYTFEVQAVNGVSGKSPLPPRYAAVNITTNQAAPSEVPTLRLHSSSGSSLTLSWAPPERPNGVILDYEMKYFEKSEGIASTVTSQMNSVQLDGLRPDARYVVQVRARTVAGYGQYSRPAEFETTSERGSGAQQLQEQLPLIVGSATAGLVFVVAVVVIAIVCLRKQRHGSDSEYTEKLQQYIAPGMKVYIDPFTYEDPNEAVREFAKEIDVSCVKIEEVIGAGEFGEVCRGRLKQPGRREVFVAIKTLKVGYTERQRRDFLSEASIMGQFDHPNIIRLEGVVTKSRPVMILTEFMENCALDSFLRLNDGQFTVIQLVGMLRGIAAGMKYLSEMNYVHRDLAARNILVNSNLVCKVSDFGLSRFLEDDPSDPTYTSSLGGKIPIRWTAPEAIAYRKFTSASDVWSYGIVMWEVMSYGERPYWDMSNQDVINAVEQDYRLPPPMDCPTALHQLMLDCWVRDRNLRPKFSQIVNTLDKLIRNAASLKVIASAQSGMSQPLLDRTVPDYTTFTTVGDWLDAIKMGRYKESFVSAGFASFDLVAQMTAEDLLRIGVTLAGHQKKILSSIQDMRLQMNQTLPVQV

[5] = molecular target: T4, Phosphatidylinositol 5-phosphate 4-kinase type-2 beta (Homo sapiens) (UniProt P78356); test: Selectivity interaction (KinomeScan (DiscoverX)) EUB0001619a PIP4K2B; conditions: at 1 µM
T4 sequence (whole entry): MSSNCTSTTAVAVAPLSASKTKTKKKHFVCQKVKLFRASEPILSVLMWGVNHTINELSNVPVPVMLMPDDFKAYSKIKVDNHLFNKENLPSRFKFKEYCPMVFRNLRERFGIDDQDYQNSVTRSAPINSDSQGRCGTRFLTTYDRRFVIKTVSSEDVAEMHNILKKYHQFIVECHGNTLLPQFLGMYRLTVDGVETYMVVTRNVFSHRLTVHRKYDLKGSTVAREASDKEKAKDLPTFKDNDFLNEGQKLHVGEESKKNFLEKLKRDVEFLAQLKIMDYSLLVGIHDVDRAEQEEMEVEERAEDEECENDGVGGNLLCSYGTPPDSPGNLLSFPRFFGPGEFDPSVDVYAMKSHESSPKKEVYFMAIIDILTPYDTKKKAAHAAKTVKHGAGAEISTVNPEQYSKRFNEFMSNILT

Chain of 5-hydroxytryptamine receptor 2B (P41595 whole entry): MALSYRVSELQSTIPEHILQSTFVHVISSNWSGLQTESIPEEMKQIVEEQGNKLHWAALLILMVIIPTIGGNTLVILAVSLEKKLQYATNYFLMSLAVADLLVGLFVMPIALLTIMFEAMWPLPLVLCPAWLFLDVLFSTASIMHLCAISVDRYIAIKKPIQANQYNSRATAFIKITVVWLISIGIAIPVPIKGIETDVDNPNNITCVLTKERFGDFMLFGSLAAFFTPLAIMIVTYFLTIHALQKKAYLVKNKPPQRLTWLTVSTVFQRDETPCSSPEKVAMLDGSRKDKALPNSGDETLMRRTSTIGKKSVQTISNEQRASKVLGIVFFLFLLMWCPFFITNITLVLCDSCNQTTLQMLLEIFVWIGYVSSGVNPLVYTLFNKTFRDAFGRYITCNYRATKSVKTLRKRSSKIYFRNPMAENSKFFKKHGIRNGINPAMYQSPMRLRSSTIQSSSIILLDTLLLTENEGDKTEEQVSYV

Q: With `CCC(=O)N1CC[C@H](Nc2ncnc3c2CN(c2cnc(OC)c(C(F)(F)F)c2)CC3)C1` [LENIOLISIB] as the molecule, how does the IC50 [1] read?
A: > 30 µM

Q: Which % of control [2] does the source give for `COc1cc(Nc2nc(C)cc(-c3cnn4nc(OC)ccc34)n2)cc(C(F)(F)F)c1` here?
A: 100%

Q: With `Cc1cnc(Nc2ccc(F)cc2Cl)nc1-c1c[nH]c(C(=O)N[C@H](CO)c2cccc(Cl)c2)c1` as the molecule, how does the % of inhibition [3] read?
A: 15%

Q: `CCC(=O)N1CCN(c2ccc(-n3c(=O)ccc4cnc5ccc(-c6cnc7ccccc7c6)cc5c43)cc2C(F)(F)F)CC1` was tested. Which % of control [4] did it give?
A: 85%

Q: How did the % of control [5] turn out when `N#Cc1cccc(-c2c[nH]c3ncnc(N4CCOCC4)c23)c1` was run?
A: 23%
